Experimental data as given in BindingDB's records for doi:10.1038/sj.mp.4000336 (University of Toronto, 1998).

The molecules below were run against 5-hydroxytryptamine receptor 2A (Rattus norvegicus, UniProt P14842).
5-hydroxytryptamine receptor 2A, sequence (P14842 whole entry): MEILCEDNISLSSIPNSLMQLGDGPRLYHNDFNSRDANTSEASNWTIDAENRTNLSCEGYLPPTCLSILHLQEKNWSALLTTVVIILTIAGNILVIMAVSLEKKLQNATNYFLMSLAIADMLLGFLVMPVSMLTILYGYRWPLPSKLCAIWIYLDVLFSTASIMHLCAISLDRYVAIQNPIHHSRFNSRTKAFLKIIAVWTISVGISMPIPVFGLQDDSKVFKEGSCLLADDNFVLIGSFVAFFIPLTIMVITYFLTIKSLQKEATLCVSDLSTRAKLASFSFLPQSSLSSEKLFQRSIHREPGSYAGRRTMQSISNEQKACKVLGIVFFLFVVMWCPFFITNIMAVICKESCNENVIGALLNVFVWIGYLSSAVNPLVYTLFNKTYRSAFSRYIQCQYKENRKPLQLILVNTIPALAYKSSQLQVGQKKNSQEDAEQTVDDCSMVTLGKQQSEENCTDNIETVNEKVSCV

Row | Structure (SMILES) | Ki [µM]
1 | CCN1CCC[C@H]1CNC(=O)c1c(OC)ccc(Br)c1OC | 5.2
2 | CCN1CCC[C@H]1CNC(=O)c1c(O)c(Cl)cc(Cl)c1OC [3,5-Dichloro-N-(1-ethyl-pyrrolidin-2-ylmethyl)-2-hydroxy-6-methoxy-benzamide (raclopride)] | 4
3 | O=C1C2CCCCC2C(=O)N1CCCCN1CCN(c2nsc3ccccc23)CC1 (stereo not drawn) [NSC_115368] | 0.0013
